# The PolyMetriX glass transition set
# ± gives the standard deviation of the reports.
row,glass transition temperature,SMILES
1,-12.00 °C,*CCOCCOC(=O)C1CCC(C(=O)O*)CC1 (repeat unit)
2,266.00 °C,*CC1(C)CC(N2C(=O)c3ccc(Oc4ccc5c(c4)C(=O)N(*)C5=O)cc3C2=O)CC(C)(C)C1 (repeat unit)
3,50.00 °C,*CC(*)(C)C(=O)OCCCCCC(=O)Oc1ccc(OC(=O)c2ccc(OCCCCC)cc2)cc1 (repeat unit)
4,92.00 °C,*Oc1ccc(C(C)(C)c2ccc(OC(*)(Oc3ccccc3)Oc3ccccc3)cc2)cc1 (repeat unit)
5,260.80 °C,*c1ccc2c(c1)C(=O)N(c1ccc(Oc3ccc(Oc4ccc(N5C(=O)c6ccc(C(*)(C(F)(F)F)C(F)(F)F)cc6C5=O)cc4)cc3)c(C(F)(F)F)c1)C2=O (repeat unit)
6,166.00 °C,*c1ccc(C(=O)NCCCCCCCCCCNC(=O)c2ccc(-c3nc4ccccc4nc3*)cc2)cc1 (repeat unit)
7,83.10 °C,*Oc1cccc(OC(=O)Oc2ccc(C(C)(C)c3ccc(OC(*)=O)cc3)cc2)c1 (repeat unit)
8,141.50 °C,*CC(*)C(=O)NCCC[N+](C)(C)CCCS(=O)(=O)O (repeat unit)
9,50.00 °C,*CCCCCCCCN(C)c1ccc(C(=O)c2ccc(N(*)C)cc2)cc1 (repeat unit)
10,324.00 °C,*c1ccc2c(c1)C(=O)N(c1cc(N3C(=O)c4ccc(C(*)(C(F)(F)F)C(F)(F)F)cc4C3=O)c(O)cc1O)C2=O (repeat unit)
11,-69.70 °C,*O[Si](*)(CCCOCCOCCOCCOCCOCCOC)CCCOCCOCCOCCOCCOCCOC (repeat unit)
12,-28.00 °C,*O[Si](C)(CCC(F)(F)F)CCC(F)(F)C(F)(F)C(F)(F)C(F)(F)C(F)(F)C(F)(F)C(F)(F)C(F)(F)CC[Si](*)(C)CCC(F)(F)F (repeat unit)
13,167.00 °C,*Oc1ccc(NC(=O)c2ccc(Oc3ccc(C(C)(C)c4cccc(C(C)(C)c5ccc(Oc6ccc(C(=O)Nc7ccc(Oc8ccc(-c9ccc(*)cc9)cc8)cc7)cc6)cc5)c4)cc3)cc2)cc1 (repeat unit)
14,-49.00 °C,*CC(C)(CO*)COCC(F)(F)C(F)(F)C(F)(F)C(F)(F)C(F)(F)C(F)(F)C(F)(F)F (repeat unit)
15,250.00 °C,*Oc1ccc(NC(=O)c2ccc(S(=O)(=O)c3ccc(C(=O)Nc4ccc(Oc5ccc(C(c6ccc(*)cc6)(C(F)(F)F)C(F)(F)F)cc5)cc4)cc3)cc2)cc1 (repeat unit)
16,335.00 °C,*Oc1ccc(NC(=O)c2cc(NC(=O)C34CC5CC(CC(C5)C3)C4)cc(C(=O)Nc3ccc(*)cc3)c2)cc1 (repeat unit)
17,312.00 °C,*Oc1ccc(C2(c3ccc(OC(=O)c4ccc(C(*)=O)cc4)cc3)CCc3ccccc32)cc1 (repeat unit)
18,208.00 °C,*CC1CCC(CNC(=O)c2cccc(C(=O)N*)c2)CC1 (repeat unit)
19,37.00 °C,*CC(*)C(=O)Oc1ccc(C(=O)OCC)cc1 (repeat unit)
20,254.00 °C,*CC(=O)Nc1ccc(Oc2c(F)c(F)c(Oc3ccc(NC(=O)c4ccc5c(c4)C(=O)N(*)C5=O)cc3)c(F)c2F)cc1 (repeat unit)
21,364.00 °C,*c1ccc(-c2ccc(-c3cc(-c4ccc(Oc5ccc(-c6ccccc6)cc5)cc4)c4cc(-c5ccc6nc(*)cc(-c7ccc(Oc8ccc(-c9ccccc9)cc8)cc7)c6c5)ccc4n3)cc2)cc1 (repeat unit)
22,102.00 °C,*CC(C)(C)COC(=O)NC(=O)c1ccc(C(=O)NC(=O)O*)cc1 (repeat unit)
23,47.50 °C,*CCC[Si](*)(c1cccc2ccccc12)C1CCCCC1 (repeat unit)
24,174.00 °C,*Oc1ccc(Oc2ccc(C(=O)c3ccc(C(=O)c4ccc(*)cc4)cc3)cc2)cc1-c1ccc(S(=O)(=O)O)cc1 (repeat unit)
25,135.00 °C,*C(F)(F)C1(*)OC(F)(F)C(F)(C(F)(F)F)O1 (repeat unit)
26,-38.00 °C,*CC(CCCCCCCCCC)C(CCCCCCCCCC)COC(=O)c1ccc(C(=O)O*)cc1 (repeat unit)

row,glass transition temperature,SMILES
1,63.00 °C,*CC(*)(F)C(=O)OCC(F)(F)C(F)(F)C(F)(F)C(F)(F)F (repeat unit)
2,272.50 °C,*c1ccc(-c2nnc(-c3cccc(-c4nnc(*)n4-c4ccccc4)c3)n2-c2ccccc2)cc1 (repeat unit)
3,54.00 °C,*CC(*)OCCOc1ccc(/N=N/c2ccc([N+](=O)[O-])cc2)cc1 (repeat unit)
4,211.8 °C,*CC(=O)c1ccc(Oc2ccc(C(=O)COc3ccc(/C=C4\CCC/C(=C\c5ccc(O*)c(OC)c5)C4=O)cc3OC)cc2)cc1 (repeat unit)
5,355.00 °C,*c1ccc(-c2ccc(-c3ccc(-c4ccc(-c5cc(-c6ccccc6)c6cc(-c7ccc8nc(*)cc(-c9ccccc9)c8c7)ccc6n5)cc4)cc3)cc2)cc1 (repeat unit)
6,133.50 °C,*c1ccc(OCCCCCCCCCCCOc2ccc(-c3ccc4nc(-c5cccc(-c6cc(-c7ccccc7)c7cc(*)ccc7n6)c5)cc(-c5ccccc5)c4c3)cc2)cc1 (repeat unit)
7,135.00 °C,*CCCC(C)(C)CCCn1c(=O)c2cc3c(=O)n(*)c(=O)c3cc2c1=O (repeat unit)
8,218.00 °C,*c1ccc(S(=O)(=O)c2ccc(-n3nccc3-c3cccc(-c4ccnn4*)c3)cc2)cc1 (repeat unit)
9,266.00 °C,*Oc1ccc(NC(=O)c2ccc3cc(C(=O)Nc4ccc(Oc5ccc(C6(c7ccc(*)cc7)C7CC8CC(C7)CC6C8)cc5)cc4)ccc3c2)cc1 (repeat unit)
10,61.00 °C,*Oc1cc(OC(=O)c2ccc(OCCCC)cc2)c(OC(=O)C(C)(C)CCC(*)=O)cc1OC(=O)c1ccc(OCCCC)cc1 (repeat unit)
11,315.00 °C,*c1ccc(C(c2ccccc2)c2ccc(N3C(=O)c4ccc(-c5ccc6c(c5)C(=O)N(*)C6=O)cc4C3=O)cc2)cc1 (repeat unit)
12,20.00 °C,*Oc1c(C)cc(*)cc1C(C)CCCCCCCC (repeat unit)
13,297.50 ± 18 °C,*C(=O)c1ccc2c(c1)C(=O)N(c1ccc(Cc3ccc(N4C(=O)c5ccc(*)cc5C4=O)c(C)c3)cc1C)C2=O (repeat unit)
14,205.00 °C,*c1ccc(Oc2ccc(-c3ccc(Oc4ccc(N5C(=O)c6ccc(Oc7ccc(Sc8ccc(Oc9ccc%10c(c9)C(=O)N(*)C%10=O)cc8)cc7)cc6C5=O)cc4)cc3)cc2)cc1 (repeat unit)
15,194.00 °C,*c1ccc(C(=O)Oc2c(C)cc(C(c3cccnc3)c3cc(C)c(OC(=O)c4ccc(N5C(=O)CC(Nc6cccc(NC7CC(=O)N(*)C7=O)c6)C5=O)cc4)c(C)c3)cc2C)cc1 (repeat unit)
16,-40.00 °C,*CC(*)(C)C(=O)OCCCCCCCC/C=C/CCCCCCCC (repeat unit)
17,24.00 °C,*CC(F)(F)C(F)(F)C(F)(F)COC(=O)c1cccc(C(F)(F)C(F)(F)C(F)(F)c2cccc(C(=O)O*)c2)c1 (repeat unit)
18,120.00 °C,*Oc1ccc(Oc2ccc(/C=N/c3ccc(Oc4ccc(/N=C/c5ccc(*)cc5)cc4)cc3)cc2)cc1 (repeat unit)
19,145.00 °C,*c1ccc(Nc2ccc(C(c3ccc(Nc4ccc(S(*)(=O)=O)cc4)cc3)(C(F)(F)F)C(F)(F)F)cc2)cc1 (repeat unit)
20,175.00 °C,*Oc1cccc(S(=O)(=O)c2ccc(*)cc2)c1 (repeat unit)
21,361.00 °C,*c1ccc2c(c1)C(=O)N(c1c(C)cc(-c3cc(C)c(-c4cc(C)c(N5C(=O)c6ccc(C(*)(C(F)(F)F)C(F)(F)F)cc6C5=O)c(C)c4)cc3C)cc1C)C2=O (repeat unit)
22,311.00 °C,*CC1(C)CC(N2C(=O)c3ccc(-c4ccc5c(c4)C(=O)N(*)C5=O)cc3C2=O)CC(C)(C)C1 (repeat unit)
23,269.00 °C,*C(=O)Nc1c(CC)cc(Cc2cc(CC)c(NC(=O)c3ccc4c(c3)C(=O)N(c3ccc(/N=N/c5ccc(C)cc5)c(N5C(=O)c6ccc(*)cc6C5=O)c3)C4=O)c(CC)c2)cc1CC (repeat unit)
24,120.00 °C,*Oc1ccc(/N=C/c2ccc(Oc3ccc(C(C)(C)c4ccc(Oc5ccc(/C=N/c6ccc(Oc7ccc(-c8ccc(*)cc8)cc7)cc6)cc5)cc4)cc3)cc2)cc1 (repeat unit)
25,74.00 °C,*CC(*)c1ccc(C(=O)OCCN(CC)CC)cc1 (repeat unit)

row,SMILES,glass transition temperature
1,*C(=O)Nc1cccc(NC(=O)c2ccc3c(c2)C(=O)N(c2cccc(P(=O)(c4ccccc4)c4cccc(N5C(=O)c6ccc(*)cc6C5=O)c4)c2)C3=O)n1 (repeat unit),156.00 °C
2,*CC(*)C(=O)OC1CC(C)CC(C)(C)C1 (repeat unit),15.00 °C
3,*CCCCCCOC(=O)CCC(=O)O* (repeat unit),-50.00 °C
4,*CCOCCOC(=O)CCCC(=O)O* (repeat unit),-55.00 °C
5,*CC/C=C(/*)C (repeat unit) [Polyisoprene (cis)],-67.00 ± 7 °C
6,*CC(C)(C)S* (repeat unit),-14.00 °C
7,*O[Si](*)(C)CCCCCC (repeat unit),-110.8 °C
8,*Nc1ccc(C(c2ccc(NC(=O)c3ccc(C(*)=O)cc3)cc2)(P2(=O)Oc3ccccc3-c3ccccc32)P2(=O)Oc3ccccc3-c3ccccc32)cc1 (repeat unit),245.00 °C
9,*c1cccc(P(=O)(c2ccc(Oc3ccc(C45CC6CC(CC(C6)C4)C5)cc3)cc2)c2cccc(N3C(=O)c4ccc(Oc5ccc6c(c5)C(=O)N(*)C6=O)cc4C3=O)c2)c1 (repeat unit),290.00 °C
10,*CC(OC)C(C(=O)OC)C(*)C(=O)OC (repeat unit),59.50 °C
11,*CC(*)c1ccc(CCCC)cc1 (repeat unit) [Poly(p-n-butyl styrene) ],6 ± 0.6 °C
12,*Oc1ccc(*)cc1 (repeat unit),85.00 °C
13,*CCCCCCOC(=O)C(CCCCCP(=O)(OCC)OCC)C(=O)OCCCCCCOc1ccc(-n2on2-c2ccc(O*)cc2)cc1 (repeat unit),7.00 °C
14,*CC(*)(C)C(=O)Oc1ccc(C#N)cc1 (repeat unit),155.00 °C
